Experimental data: ChEMBL document CHEMBL4431314, “Computer-aided drug design guided by hydrogen/deuterium exchange mass spectrometry: A powerful combination for the development of potent and selective inhibitors of Group VIA calcium-independent phospholipase A2” (Bioorg Med Chem, 2016)

Columns and labels:
Homo sapiens = species: Homo sapiens; assay: Inhibition of His-tagged human group V human secretory PLA2 expressed in Escherichia coli BL21 cells at 0.091 mol fraction using PAPC/arachidonyl-1-14C PAPC as substrate by mixed micelle modified Dole assay
[1] = molecular target: T1, 85/88 kDa calcium-independent phospholipase A2 (Homo sapiens) (UniProt O60733); assay: Inhibition of N-terminal 6xHis-tag human group VIA calcium-independent PLA2 expressed in fall armyworm sf9 cells at 0.091 mol fraction using PAPC/arachidonyl-1-14C PAPC as substrate by mixed micelle modified Dole assay
T1 sequence (whole entry): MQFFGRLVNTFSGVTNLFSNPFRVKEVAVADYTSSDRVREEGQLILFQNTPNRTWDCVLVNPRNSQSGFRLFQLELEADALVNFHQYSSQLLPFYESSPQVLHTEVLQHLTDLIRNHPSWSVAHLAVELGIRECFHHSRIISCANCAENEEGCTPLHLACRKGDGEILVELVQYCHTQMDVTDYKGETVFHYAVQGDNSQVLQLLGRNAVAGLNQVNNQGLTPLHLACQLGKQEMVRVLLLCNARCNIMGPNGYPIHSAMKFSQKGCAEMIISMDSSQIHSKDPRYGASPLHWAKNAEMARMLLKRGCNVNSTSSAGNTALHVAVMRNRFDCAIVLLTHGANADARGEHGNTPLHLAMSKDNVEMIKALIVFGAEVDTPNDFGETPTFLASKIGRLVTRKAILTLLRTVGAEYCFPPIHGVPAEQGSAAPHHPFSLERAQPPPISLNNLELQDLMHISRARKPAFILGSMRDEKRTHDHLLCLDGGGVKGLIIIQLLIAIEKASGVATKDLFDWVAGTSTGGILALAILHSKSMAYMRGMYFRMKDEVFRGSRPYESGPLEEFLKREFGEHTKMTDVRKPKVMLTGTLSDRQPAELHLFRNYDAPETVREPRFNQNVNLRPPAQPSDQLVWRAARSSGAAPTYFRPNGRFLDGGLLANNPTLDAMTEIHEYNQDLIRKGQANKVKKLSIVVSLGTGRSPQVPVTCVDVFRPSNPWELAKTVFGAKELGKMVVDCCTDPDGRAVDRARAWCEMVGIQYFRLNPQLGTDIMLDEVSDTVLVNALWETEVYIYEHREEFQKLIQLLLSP

[2] = molecular target: T2, Cytosolic phospholipase A2 (Homo sapiens) (UniProt P47712); assay: Inhibition of C-terminal 6xHis-tagged human group IVA cytosolic PLA2 expressed in fall armyworm sf9 cells at 0.091 mol fraction using PAPC/arachidonyl-1-14C PAPC as substrate by mixed micelle modified Dole assay
T2 sequence (whole entry): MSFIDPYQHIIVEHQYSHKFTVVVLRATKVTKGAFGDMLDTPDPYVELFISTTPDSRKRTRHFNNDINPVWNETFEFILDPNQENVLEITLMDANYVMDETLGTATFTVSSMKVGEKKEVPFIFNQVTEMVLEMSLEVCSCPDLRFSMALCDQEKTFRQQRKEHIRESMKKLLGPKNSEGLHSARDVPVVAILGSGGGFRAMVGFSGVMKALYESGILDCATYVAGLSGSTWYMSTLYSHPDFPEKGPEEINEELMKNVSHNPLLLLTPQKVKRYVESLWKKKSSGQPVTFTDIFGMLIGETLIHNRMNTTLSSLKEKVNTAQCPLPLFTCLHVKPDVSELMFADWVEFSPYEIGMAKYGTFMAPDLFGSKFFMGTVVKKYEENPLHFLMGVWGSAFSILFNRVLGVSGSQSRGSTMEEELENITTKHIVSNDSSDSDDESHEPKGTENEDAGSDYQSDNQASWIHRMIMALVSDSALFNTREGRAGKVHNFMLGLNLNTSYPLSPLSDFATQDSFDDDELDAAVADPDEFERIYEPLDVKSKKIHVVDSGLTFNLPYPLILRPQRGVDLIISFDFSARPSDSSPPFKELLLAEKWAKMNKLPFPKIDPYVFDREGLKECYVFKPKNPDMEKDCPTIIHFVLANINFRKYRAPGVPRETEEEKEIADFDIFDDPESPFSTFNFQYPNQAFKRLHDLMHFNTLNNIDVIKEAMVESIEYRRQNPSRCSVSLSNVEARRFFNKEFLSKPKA

[3] = molecular target: T1, 85/88 kDa calcium-independent phospholipase A2 (Homo sapiens); assay: Inhibition of N-terminal 6xHis-tag human group VIA calcium-independent PLA2 expressed in fall armyworm sf9 cells using PAPC/arachidonyl-1-14C PAPC as substrate by mixed micelle modified Dole assay
[4] = molecular target: T2, Cytosolic phospholipase A2 (Homo sapiens); assay: Inhibition of C-terminal 6xHis-tagged human group IVA cytosolic PLA2 expressed in fall armyworm sf9 cells using PAPC/arachidonyl-1-14C PAPC as substrate by mixed micelle modified Dole assay
[5] = molecular target: T1, 85/88 kDa calcium-independent phospholipase A2 (Homo sapiens); assay: Binding affinity to Group VIA calcium-independent PLA2 (unknown origin) (770 to 778 residues) assessed as change in average deuteration level preincubated for 30 mins followed by D2O addition measured after 10 to 10000 secs by DXMS analysis
[6] = molecular target: T1, 85/88 kDa calcium-independent phospholipase A2 (Homo sapiens); assay: Competitive-reversible inhibition of N-terminal 6xHis-tag human group VIA calcium-independent PLA2 expressed in fall armyworm sf9 cells using PAPC/arachidonyl-1-14C PAPC as substrate by mixed micelle modified Dole assay
[7] = molecular target: T1, 85/88 kDa calcium-independent phospholipase A2 (Homo sapiens); assay: Binding affinity to Group VIA calcium-independent PLA2 (unknown origin) (514 to 524 residues) assessed as change in average deuteration level preincubated for 30 mins followed by D2O addition measured after 10 to 10000 secs by DXMS analysis
[8] = molecular target: T1, 85/88 kDa calcium-independent phospholipase A2 (Homo sapiens); assay: Binding affinity to Group VIA calcium-independent PLA2 (unknown origin) (656 to 664 residues) assessed as change in average deuteration level preincubated for 30 mins followed by D2O addition measured after 10 to 10000 secs by DXMS analysis
[9] = molecular target: T1, 85/88 kDa calcium-independent phospholipase A2 (Homo sapiens); assay: Binding affinity to Group VIA calcium-independent PLA2 (unknown origin) (481 to 493 residues) assessed as change in average deuteration level preincubated for 30 mins followed by D2O addition measured after 10 to 10000 secs by DXMS analysis
[10] = molecular target: T1, 85/88 kDa calcium-independent phospholipase A2 (Homo sapiens); assay: Binding affinity to Group VIA calcium-independent PLA2 (unknown origin) (542 to 562 residues) assessed as change in average deuteration level preincubated for 30 mins followed by D2O addition measured after 10 to 10000 secs by DXMS analysis
[11] = molecular target: T1, 85/88 kDa calcium-independent phospholipase A2 (Homo sapiens); assay: Binding affinity to Group VIA calcium-independent PLA2 (unknown origin) (630 to 655 residues) assessed as change in average deuteration level preincubated for 30 mins followed by D2O addition measured after 10 to 10000 secs by DXMS analysis
[12] = molecular target: T1, 85/88 kDa calcium-independent phospholipase A2 (Homo sapiens); assay: Binding affinity to Group VIA calcium-independent PLA2 (unknown origin) (718 to 730 residues) assessed as change in average deuteration level preincubated for 30 mins followed by D2O addition measured after 10 to 10000 secs by DXMS analysis

SMILES	inhibition [1] [%]	inhibition [2] [%]	XI50 (mole fraction) [3]	pXI50 [1]	inhibition (Homo sapiens) [%]	further results
CCCCCCS(=O)(=O)CC(O)C(F)(F)F (stereo not given)	15	5	–	–	16	–
CCCCCCCCCCSCC(=O)C(F)(F)F	99	100	0.00041	3.4	78	XI50 (mole fraction) [4]: 0.008
CCCCCCCCCCCCS(=O)(=O)CC(O)C(F)(F)F (stereo not given)	32	2	–	–	80	–
CCCCCCS(=O)(=O)CC(O)(O)C(F)(F)F	71	14	–	–	0	–
CCCCCCCCCCCCSCC(=O)C(F)(F)F	97	83	0.0043	2.4	87	–
CCCCCCCCS(=O)(=O)CC(O)C(F)(F)F (stereo not given)	24	5	–	–	23	–
CCCCCCOCC(O)C(F)(F)F (stereo not given)	43	58	–	–	35	–
CCCCCCCCCCCCS(=O)(=O)CC(O)(O)C(F)(F)F	52	34	–	–	44	–
CCCCCCCCSCC(=O)C(F)(F)F	99	82	–	3.7	68	Activity [5]: 20%; XI50 (mole fraction) [6]: 0.0002; Activity [7]: 13%; Activity [8]: 12%; Activity [9]: 16%; Activity [10]: 18%; Activity [11]: 12%; Activity [12]: 13%
CCCCCCCCS(=O)(=O)CC(O)(O)C(F)(F)F	82	19	–	–	18	–
O=C(C[Se]c1ccccc1)C(F)(F)F	46	18	–	–	44	–

Further lines, with some results ahead:

inhibition [1] [%]	inhibition [2] [%]	XI50 (mole fraction) [3]	pXI50 [1]	SMILES	inhibition (Homo sapiens) [%]	further results
52	26	–	–	O=C(CSc1ccc([N+](=O)[O-])cc1)C(F)(F)F	17	–
99	91	0.0049	2.3	O=C(CSc1c(Cl)cccc1Cl)C(F)(F)F	43	–
98	98	0.0007	3.2	CCCCCCCCCCCSCC(=O)C(F)(F)F	73	XI50 (mole fraction) [4]: 0.014
100	92	0.00059	3.2	O=C(CSCCc1ccccc1)C(F)(F)F	61	–
98	91	0.011	2	O=C(CSc1cccc(Cl)c1)C(F)(F)F	46	–
89	75	–	–	O=C(CSc1ccccc1)C(F)(F)F	27	–
99	76	0.006	2.2	CCCCCCOCC(=O)C(F)(F)F	35	–
97	82	0.0071	2.2	O=C(CSc1ccc(Br)cc1)C(F)(F)F	35	–
46	24	–	–	O=C(CSc1ccc(F)cc1)C(F)(F)F	14	–
95	61	0.009	2.1	Cc1ccc(SCC(=O)C(F)(F)F)cc1	18	–
91	46	0.07	1.2	CCCCSCC(=O)C(F)(F)F	14	–
95	82	0.011	2	O=C(CSc1ccc(Cl)cc1)C(F)(F)F	23	–
99	77	0.00052	3.3	CCCCCCSCC(=O)C(F)(F)F	33	–
93	70	0.011	2	COc1ccc(SCC(=O)C(F)(F)F)cc1	16	–
39	60	–	–	O=C(c1ccc(C2CCCCC2)s1)C(F)(F)F	66	–
